Measurements taken from US11318079B2, “Polyhydroxylated (1-phenyl-2-phenyl) ethylene derivatives as an anti-ageing and photoprotective agent” (L'OREAL, priority 2015, dated 2022).
Like-named read-outs stand apart in the source and are kept apart here.

How the values were obtained:
[1] = tested on: AMPK pathway (pACC, phosphorylated Acetyl-CoA Carboxylase) in NHEK cells; assay: Evaluation on AMPK pathway in NHEK cells by pACC immunolabeling; format: cell-based, Human; settings: for % control (labeling % of the pACC compared to the control brought back to 100%) / global increase of the pACC labelling: NHEK cells, Compound 4 at 10 μM; for % control (labeling % of the pACC compared to the control brought back to 100%): 48 hours incubation, n=3, AICAR at 500 μM (0.5% DMSO); for global increase of the pACC labelling: AICAR reference at 500 μM
Procedure: Evaluation of the effect of compound 4 on the AMPK pathway in NHEK cells (Normal Human Epidermal Keratinocytes) by analysis of the pACC (Acetyl-CoA Carboxylase) phosphorylated form expression. This effect is studied by fluorescent immunolabeling and image analysis.
Keratinocytes are seeded in 96-well microplates and grown for 24 hours in a culture medium. The medium is then replaced by the test medium and cells are grown for 24 supplementary hours. Finally, the medium is replaced by the test medium comprising or not (control) the tested compounds, the reference (AICAR) or the control solvent (0.1% or 0.5% DMSO) then the cells are incubated for 48 hours. All the test conditions were carried out with n=3.
After incubation, the immunolabeling is done. The results are expressed in labeling % of the pACC compared to the control brought back to 100%.

[2] = tested on: keratinocytes of the HaCaT line; assay: Production of reactive oxygen species (ROS) induced by UVA in HaCaT keratinocytes (DHR123 or DCFH-DA probe); format: cell-based; settings: for EC50: Homo sapiens, light or radiation study, 24 h incubation, UVA exposure, concentration allowing 50% photoprotection (500 μM vitamin C = 100%); for ROS production decrease: UVA-induced ROS
Procedure: The decrease of the production of reactive oxygen species in keratinocytes of the HaCaT line is evaluated by detection, using the Dihydrorhodamine 123 (DHR123) probe or using Dichloro-dihydro-fluorescein diacetate (DCFH-DA) probe, the ROS production is induced by exposition to UVA after 24 h of incubation in the presence of the compounds to be tested. The DHR123 and DCFH-DA probes are indicators of the presence of reactive oxygen species (ROS). HaCaT keratinocytes in monolayer culture are placed in the presence of a solution of a compound to be tested at various concentrations (0.4-200 μM) in the medium. After 24 h of incubation, the cells are exposed to UVA, then incubated with the DHR123 probe or DCFH-DA probe for 1 h. The fluorescence of the probe is then measured. A viability test is carried out in parallel in order to discard the cytotoxic compounds. In parallel, the keratinocytes are incubated with vitamin C acting as a positive control and a standard: an incubation with 500 μM of vitamin C corresponds to 100% photoprotection. The dose-effect curves of the fluorescence detected as a function of the concentration of compounds (to be tested) present in the medium make it possible to calculate the effective dose EC50 which corresponds to the concentration of compound (to be tested) that allows 50% photoprotection of the keratinocytes.

[3] = DCFH-DA probe, read-out: EC50- DCFH-DA
[4] = DHR123 probe, read-out: EC50 -DHR123

| SMILES | % control (labeling % of the pACC compared to the control brought back to 100%) [1] | global increase of the pACC labelling [1] | EC50 [2, 3] | EC50 [2, 4] | ROS production decrease [2] | activation of the AMPK route in normal human keratinocytes ([1]; 10 μM) |
| --- | --- | --- | --- | --- | --- | --- |
| NC(=O)c1ncn([C@@H]2O[C@H](CO)[C@@H](O)[C@H]2O)c1N [AICAR, reference compound] | 117% | 17% | – | – | – | – |
| COc1ccc(/C=C/c2ccc(O)c(OC)c2)cc1 [Compound 1] | – | – | 20 µM | 36 µM | Yes | – |
| COc1cc(/C=C/c2ccc(OC)c(OC)c2)ccc1O [Compound 4] | 119% | 19% | – | 100 µM | Yes | capable to active the AMPK route |
| COc1cc(/C=C/c2ccc(OC(C)=O)c(OC)c2)ccc1O [Compound 5] | – | – | 29 µM | – | Yes | – |
